Reference: patent US10471048B2, “Thienopyridine derivative for the treatment of hepatitis C infections” (Cipla (UK) Limited, priority 2015, dated 2019)

Assays:
[1] = system: cell culture-derived HCV (HCVcc); experiment: microbe, parasite or virus in culture; assay type: cell-based, Hepatitis C virus
Protocol: (§1) Huh7.5 cells are grown in Dulbecco's modified essential media (DMEM), 10% fetal bovine serum (FBS), 1% penicillin-streptomycin (pen-strep), 1% Non-essential amino acids (NEAA) in a 5% CO2 incubator at 37° C. Huh7.5 cells are seeded at 1×10^4 cells per well into 96-well plates according to Southern Research Institute standard format. Test articles are serially diluted with DMEM plus 5% FBS. The diluted compound in the amount of 50 μl is mixed with equal volume of cell culture-derived HCV (HCVcc), then applied to appropriate wells in the plate. Human interferon alpha-2b (rIFNα-2b) and/or Sofosbuvir are included as a positive control. After 72 hr incubation at 37° C., the cells are lysed for measurement of luciferase activity using Renilla Luciferase Assay System (Promega) according to manufacturer's instruction. The number of cells in each well is determined by CytoTox-1 reagent (Promega).

HCV GT1b CON-1 replicon = experiment: HCV replicon assay (antiviral activity); assay type: cell-based, Hepatitis C virus; details: In vitro HCV replicon assay
Source text: The HCV replicon antiviral evaluation assay examines the effects of compound at six serial dilutions. Human interferon alpha-2b (rIFNα-2b) and Sofosbuvir are included in each run as a positive control compound.

[2] = Infectious HCVcc assay, cell viability (CytoTox-1); details: human, Huh7.5 cells infected with cell culture-derived HCV (HCVcc)
Protocol: as §1

[3] = HCV replicon assay, cell viability (CytoTox-1); details: human, Huh7 hepatoma cells containing a subgenomic HCV replicon
Protocol: We use the subgenomic HCV replicons of genotype 1a (H77 strain), 1b (Con1 strain), and 2a (JFH-1 strain), which are Huh7 human hepatoma cell lines that contains an HCV replicon.
Briefly, the replicon cells are plated at 5,000 cells/well into 96-well plates that are dedicated for the analysis of cell numbers (cytotoxicity) or antiviral activity. On the following day, samples are diluted with assay media and added to the appropriate wells. Cells are processed 72 hours later when the cells are still sub-confluent. […] The concentration of drug that reduces cell viability is assessed by the fluorometric CytoTox-1 cell proliferation assay (Promega), (expressed as cell numbers). […] Where applicable EC50 (concentration inhibiting HCV replicon by 50%), EC90 (concentration inhibiting HCV replicon by 90%), CC50 (concentration decreasing cell viability by 50%), CC90 (concentration decreasing cell viability by 90%) and SI (selectivity indices: CC50/EC50 and CC90/EC90) values are derived.

## CC(=O)Oc1cc2c(s1)CCN(C(C(=O)C1CC1)c1ccccc1F)C2.Cl (racemic) [Prasugrel, 5-[(1RS)-2-cyclopropyl-1-(2-fluorophenyl)-2-oxoethyl]-4,5,6,7-tetrahydrothieno[3,2-c]pyridin-2-yl acetate hydrochloride]
[1]; Hepatitis C virus, 72 h
  EC50: 9.71 µM
[1]; In vitro HCVcc assay, CC50/EC50
  Selectivity index: >10.3
HCV GT1b CON-1 replicon; Hepatitis C virus, GT1B, concentration inhibiting HCV replicon by 50%, 72 hours
  EC50: 47.1 µM
HCV GT1b CON-1 replicon; CC50/EC50
  Selectivity index: 1.88
[2]
  CC50 at 72 h: > 100 µM
[3]
  CC50 at 72 h: 88.5 µM
